From US9073858B2, “Methods of targeted drug development” (priority 2010, dated 2015)
Read-outs that look alike come from different tables or passages of the source.

Legend:
HT-29 cells = assay: HT-29 Cell Proliferation Assay (MTT); type: cell-based; conditions: Homo sapiens, read-out: IC50 Value (μM) HT-29 Cells
Experimental: (§1) Cell proliferation is determined using the MTT assay. The MTT cell proliferation assay is a colorimetric assay system which measures the reduction of a tetrazolium component (MTT) into an insoluble formazan product by the mitochondria of viable cells. After incubation of the cells with the MTT reagent, DMSO is added to solubilize the colored crystals and the samples read at a wavelength of 560 nm. The amount of color produced is directly proportional to the number of viable cells.
(§2) 3-(4,5-Dimethylthiazol-2-yl)-2,5-diphenyltetrazolium Bromide (MTT) dye (Aesar, cat no. L11939) was prepared at 5 mg/ml in PBS. To each well, 20 μl of MTT solution was added to existing media and mixed thoroughly with 5 mins of gentle shaking at room temperature. Plates were incubated at 37° C., 5% CO2 for approximately 2 hrs. After 2-3 hrs incubation, media was aspirated out and plates were patted dry. […] Plates were incubated at 37° C., 5% CO2 for 10 min and mix thoroughly with 5 mins of gentle shaking at room temperature. Plates were read on the PolarStar plate reader at 560 nm. Percent (%) inhibition was calculated as 100%−(OD560 nm experimental-blank)×100%/OD560 nm control-blank. Blank=wells+serum free media+0.5% DMSO. Experimental=wells+cells+treatment+0.5% DMSO. Control=wells+cells+0.5% DMSO. IC50 values were calculated in GraphPad Prism using non-linear regression curve fitting. All statistical analyses was done either in GraphPad Prism or Microsoft Excel.
Briefly, compounds are added to cells plated in 96-well plates. […] The effect of the compounds on cell proliferation is analyzed using GraphPad Prism.
HT-29 cells are a colon cancer cell line that is utilized to assess the ability of compounds to inhibit the proliferation of cells in tumors of the colon.
For the HT-29 cell proliferation assay, on day 1, HT-29 cells are seeded at 3,000 cells/well in 100 μl media containing 10% FBS, 1× Pen-Strep, and 1× L-Glutamine in 96 well, tissue culture-treated plates. […] Working solutions of compounds were prepared (at […] in 100% DMSO). To 200 μl media, 20 μl of a 5× compound (diluted in plain media) was added for a final DMSO concentration of 0.5%. […] On day 5, plates were analyzed for cell growth using the MTT assay.

H1975 cells = assay: H1975 Cell Proliferation Assay (MTT); type: cell-based; conditions: Homo sapiens, read-out: IC50 Value (μM) H1975 Cells
Experimental: as §1, §2
Briefly, compounds are added to cells plated in 96-well plates. The cells are allowed to grow for 72 hours before MTT treatment. The effect of the compounds on cell proliferation is analyzed using GraphPad Prism.

[1] = Stability on incubation with mouse liver microsomes (MLM); type: in vitro ADME; conditions: percentage left after incubation with mouse liver microsomes for 30 minutes
Experimental: (§3) Stability of hydroxyquinoline analogs were determined (see e.g., TABLE 18). MLM represents the percentage left after incubation with mouse liver microsomes for 30 minutes. HLM represents the percentage left after incubation with human liver microsomes for 30 minutes.
(§4) Stability of analogs having a benzaldehyde derived ring were determined (see e.g., TABLE 18). MLM represents the percentage left after incubation with mouse liver microsomes for 30 minutes. HLM represents the percentage left after incubation with human liver microsomes for 30 minutes.

A549 cells = assay: A549 Cell Proliferation Assay (MTT); type: cell-based; conditions: Homo sapiens
Experimental: Cell proliferation is determined using the MTT assay. The MTT cell proliferation assay is a colorimetric assay system which measures the reduction of a tetrazolium component (MTT) into an insoluble formazan product by the mitochondria of viable cells. After incubation of the cells with the MTT reagent, DMSO is added to solubilize the colored crystals and the samples read at a wavelength of 560 nm. The amount of color produced is directly proportional to the number of viable cells. […] L11939) was prepared at 5 mg/ml in PBS. […] Plates were read on the PolarStar plate reader at 560 nm. […] IC50 values were calculated in GraphPad Prism using non-linear regression curve fitting. All statistical analyses was done either in GraphPad Prism or Microsoft Excel. […] Briefly, compounds are added to cells plated in 96-well plates. The cells are allowed to grow for 72 hours before MTT treatment. The effect of the compounds on cell proliferation is analyzed using GraphPad Prism. A549 cells are a non-small cell lung cancer cell line that have wild type EGFR and p53 but have point mutations in KRAS gene which transform it into an oncogene. […] SH30071.03, lot no. ATB31500), 1% Pen Strep (Gibco, cat no. […] On day 2, working solutions of compounds at 200× were prepared. […] Plates were incubated for 72 hours before analyzing them with MTT (as described above).

[2] = Stability on incubation with human liver microsomes (HLM); type: in vitro ADME; conditions: percentage left after incubation with human liver microsomes for 30 minutes
Experimental: as §3, §4

[3] = A549, 72 h, read-out: IC50 Value (μM) A549 Cells
[4] = A549, read-out: IC50, cell proliferation in A549 or H1975 cells
[5] = A549, MTT, 72 hours, read-out: IC50 Value (μM) A549 Cells

SMILES	IC50 (HT-29 cells; HT-29, 72 h)	IC50 (H1975 cells; NCI-H1975, 72 h)	MLM % Remaining@ 30 Min [1]	IC50 (A549 cells; [3])	HLM % Remaining@ 30 Min [2]	IC50 (A549 cells; [4])	IC50 (HT-29 cells; HT-29, MTT, 72 hrs)	IC50 (H1975 cells; NCI-H1975, MTT, 72 hours)	IC50 (A549 cells; [5])
Oc1c(C(Nc2ccc(Cl)cn2)c2cc(Cl)ccc2Cl)ccc2cccnc12 (stereo not drawn) [AD4-13095]	5.4 µM	0.44 µM	60%	0.11 µM	88%	–	–	–	–
Oc1c(C(Nc2ncc(Cl)cc2F)c2ccc(Cl)c(Cl)c2)ccc2cccnc12 (stereo not drawn) [AD4-13150]	1.9 µM	0.45 µM	85%	0.14 µM	100%	–	–	–	–
Oc1c(C(Nc2ncc(F)cc2F)c2c(Cl)cccc2Cl)ccc2cccnc12 (stereo not drawn) [AD4-13138]	1.1 µM	0.3 µM	–	0.17 µM	–	–	–	–	–
Oc1c(C(Nc2ncc(Cl)cc2F)c2cccc(C(F)(F)F)c2)ccc2cccnc12 (stereo not drawn) [AD4-13145]	2.1 µM	1.7 µM	–	0.16 µM	–	–	–	–	–
Cc1cc(Cl)cnc1NC(c1ccc(Cl)c(Cl)c1)c1ccc2cccnc2c1O (stereo not drawn) [AD4-13119]	1.5 µM	0.12 µM	–	0.18 µM	–	–	–	–	–
Cc1cc(NC(c2ccc(C(F)(F)F)cc2)c2ccc3cccnc3c2O)ncc1Cl (stereo not drawn) [AD4-13121]	1.8 µM	0.33 µM	–	0.18 µM	–	–	–	–	–
Oc1c(C(Nc2cc(Cl)c(Cl)cn2)c2cccc(Cl)c2Cl)ccc2cccnc12 (stereo not drawn) [AD4-13172]	1.3 µM	0.15 µM	80%	0.14 µM	100%	–	–	–	–
Cc1nc(NC(c2cccc(Cl)c2Cl)c2ccc3cccnc3c2O)c(Cl)cc1Cl (stereo not drawn) [AD4-13211]	2 µM	0.16 µM	–	0.082 µM	–	≤ 0.1 µM	–	–	–
Cc1cccc(NC(c2cc(Cl)ccc2Cl)c2ccc3ccc(C)nc3c2O)n1 (stereo not drawn) [AD4-13090]	–	–	–	–	–	–	3.7 µM	1.3 µM	0.16 µM
Oc1c(C(Nc2cc(Cl)c(Cl)cn2)c2ccc(Cl)c(C(F)(F)F)c2)ccc2cccnc12 (stereo not drawn) [AD4-13184]	2.2 µM	0.24 µM	–	0.11 µM	–	–	–	–	–
Cc1cccc(NC(c2ccc(Cl)c(Cl)c2)c2cc(Cl)c3cccnc3c2O)n1 (stereo not drawn) [AD4-13081]	–	–	–	–	–	–	6.2 µM	0.33 µM	0.17 µM
Oc1c(C(Nc2ncc(F)cc2F)c2ccc(Cl)cc2Cl)ccc2cccnc12 (stereo not drawn) [AD4-13175]	2 µM	3.8 µM	–	0.17 µM	–	–	–	–	–
Cc1cc(Cl)cnc1NC(c1ccc(Cl)cc1Cl)c1cc(Cl)c2cccnc2c1O (stereo not drawn) [AD4-13212]	3.5 µM	–	–	0.13 µM	–	–	–	0.16 µM	–
Cc1cc(Cl)cnc1NC(c1ccc(Cl)cc1)c1ccc2cccnc2c1O (stereo not drawn) [AD4-13154]	0.76 µM	0.15 µM	–	0.17 µM	–	–	–	–	–
Cc1cc(Cl)cnc1NC(c1cc(Cl)cc(Cl)c1Cl)c1ccc2cccnc2c1O (stereo not drawn) [AD4-13167]	1.5 µM	0.31 µM	–	0.1 µM	–	–	–	–	–
Cc1cc(Cl)cnc1NC(c1cccc(Cl)c1)c1ccc2cccnc2c1O (stereo not drawn) [AD4-13159]	1.2 µM	0.13 µM	–	0.11 µM	–	–	–	–	–
Cc1cc(NC(c2ccc3cccnc3c2O)c2c(Cl)cccc2Cl)ncc1Cl (stereo not drawn) [AD4-13148]	1.1 µM	0.31 µM	–	0.13 µM	–	–	–	–	–
Cc1nc(NC(c2cc(Cl)cc(Cl)c2Cl)c2ccc3cccnc3c2O)ccc1Cl (stereo not drawn) [AD4-13209]	2.3 µM	0.14 µM	–	0.17 µM	–	–	–	–	–
Oc1c(C(Nc2cc(Cl)c(Cl)cn2)c2cccc(Cl)c2)ccc2cccnc12 (stereo not drawn) [AD4-13188]	0.86 µM	0.28 µM	–	0.14 µM	–	–	–	–	–
Cc1cc(Cl)cnc1NC(c1ccc2cccnc2c1O)c1c(F)cccc1Cl (stereo not drawn) [AD4-13135]	0.79 µM	0.21 µM	–	0.18 µM	–	–	–	–	–
Cc1cc(NC(c2ccc(Cl)cc2Cl)c2ccc3cccnc3c2O)ncc1Cl (stereo not drawn) [AD4-13123]	–	0.36 µM	30%	0.12 µM	84%	–	–	–	–
Oc1c(C(Nc2cc(Cl)c(Cl)cn2)c2cc(Cl)cc(Cl)c2Cl)ccc2cccnc12 (stereo not drawn) [AD4-13180]	1.7 µM	0.86 µM	–	0.1 µM	–	–	–	–	–
Oc1c(C(Nc2ncc(F)cc2F)c2ccc(F)cc2Cl)ccc2cccnc12 (stereo not drawn) [AD4-13146]	2 µM	0.24 µM	–	0.14 µM	–	–	–	–	–
Oc1c(C(Nc2ncc(F)cc2F)c2ccc(Cl)c(Cl)c2)ccc2cccnc12 (stereo not drawn) [AD4-13182]	8.3 µM	1.8 µM	–	0.19 µM	–	–	–	–	–
Cc1ccnc(NC(c2ccc3cccnc3c2O)c2c(F)c(F)c(OCC(F)(F)F)c(F)c2F)c1 (stereo not drawn) [AD4-13092]	3.9 µM	0.21 µM	–	0.16 µM	–	–	–	–	–
Cc1cc(Cl)cnc1NC(c1ccc2cccnc2c1O)c1c(Cl)cccc1Cl (stereo not drawn) [AD4-13142]	3.1 µM	0.95 µM	–	0.14 µM	–	–	–	–	–
Cc1cc(Cl)ccc1NC(c1ccc(Cl)c(Cl)c1)c1ccc2cccnc2c1O (stereo not drawn) [AD4-13204]	–	–	–	–	–	–	4.5 µM	1.4 µM	0.19 µM
Oc1c(C(Nc2cc(Cl)c(Cl)cn2)c2ccc(Cl)cc2)ccc2cccnc12 (stereo not drawn) [AD4-13187]	1.3 µM	0.26 µM	–	0.15 µM	–	–	–	–	–
Cc1cc(NC(c2ccc(C(F)(F)F)cc2C(F)(F)F)c2ccc3cccnc3c2O)ncc1Cl (stereo not drawn) [AD4-13124]	1.5 µM	0.97 µM	–	0.1 µM	–	≤ 0.1 µM	–	–	–
